In the supplement of paper PMC13380429:

Legend:
Details in all cases: 72 h
Caco-2 [1] = test: cell viability relative to DMSO; higher = less toxic
Calu-3 [2] = test: as above
HepG2 [3] = test: as above
U2OS [4] = test: as above
Vero E6 [5] = test: as above
Caco-2 [6] = test: relative viability EC50 (midpoint between 100% and the lowest measured viability); higher = less toxic
Calu-3 [7] = test: as above
HepG2 [8] = test: as above
U2OS [9] = test: as above
Vero E6 [10] = test: as above
Caco-2 [11] = test: drug sensitivity score (DSS) for viability; higher = more toxic; extreme values may be limits of the assay
Calu-3 [12] = test: as above
HepG2 [13] = test: as above
U2OS [14] = test: as above
Vero E6 [15] = test: as above

Row | SMILES | cell viability (Caco-2 [1]; 1 nM) | cell viability (Caco-2 [1]; 10 nM) | cell viability (Caco-2 [1]; 100 nM) | cell viability (Caco-2 [1]; 1000 nM) | cell viability (Caco-2 [1]; 10000 nM) | cell viability (Calu-3 [2]; 1 nM) | cell viability (Calu-3 [2]; 10 nM) | cell viability (Calu-3 [2]; 100 nM) | cell viability (Calu-3 [2]; 1000 nM) | cell viability (Calu-3 [2]; 10000 nM) | cell viability (HepG2 [3]; 1 nM) | cell viability (HepG2 [3]; 10 nM) | cell viability (HepG2 [3]; 100 nM) | cell viability (HepG2 [3]; 1000 nM) | cell viability (HepG2 [3]; 10000 nM) | cell viability (U2OS [4]; 1 nM) | cell viability (U2OS [4]; 10 nM) | cell viability (U2OS [4]; 100 nM) | cell viability (U2OS [4]; 1000 nM) | cell viability (U2OS [4]; 10000 nM) | cell viability (Vero E6 [5]; 1 nM) | cell viability (Vero E6 [5]; 10 nM) | cell viability (Vero E6 [5]; 100 nM) | cell viability (Vero E6 [5]; 1000 nM) | cell viability (Vero E6 [5]; 10000 nM) | relative viability EC50 (Caco-2 [6]) | relative viability EC50 (Calu-3 [7]) | relative viability EC50 (HepG2 [8]) | relative viability EC50 (U2OS [9]) | relative viability EC50 (Vero E6 [10]) | drug sensitivity score (Caco-2 [11]) | drug sensitivity score (Calu-3 [12]) | drug sensitivity score (HepG2 [13]) | drug sensitivity score (U2OS [14]) | drug sensitivity score (Vero E6 [15])
1 | Cc1nn(-c2ccccc2)c(C)c1/C=N/N1CCN(Cc2ccccc2)CC1 [SANT-1] | 105% | 102% | 99.2% | 94% | 104% | 98.6% | 93.8% | 93.1% | 81.7% | 94.3% | 87.1% | 92.3% | 87% | 99.7% | 74.1% | 105% | 98.3% | 102% | 99.5% | 102% | 98.1% | 99.7% | 94.6% | 102% | 106% | > 10 µM | > 10 µM | > 10 µM | > 10 µM | > 10 µM | 0 | 0.2 | 0 | 0 | 0
2 | Cc1ccc([N+](=O)[O-])cc1S(=O)(=O)N(C)C | 91.7% | 88.7% | 94.2% | 96.1% | 99.2% | 97.2% | 92.8% | 94.8% | 107% | 105% | 95.7% | 104% | 93.1% | 99.1% | 102% | 103% | 99.7% | 103% | 92.6% | 99.9% | 92.8% | 97.9% | 95.6% | 93.1% | 108% | > 10 µM | > 10 µM | > 10 µM | > 10 µM | > 10 µM | 0 | 0 | 0 | 0 | 0
3 | CCOc1ccc(Nc2nc(-c3c(C)nc4ccccn34)cs2)cc1 [JK-184] | 102% | 96.9% | 91.3% | 57.4% | 33.2% | 101% | 90.5% | 103% | 57.6% | 39.4% | 94.9% | 99.5% | 90.6% | 86.9% | 40.1% | 106% | 100% | 79.9% | 26.9% | 19.7% | 98.3% | 97.6% | 77.8% | 31.3% | 29.5% | 0.578 µM | 0.715 µM | 1.68 µM | 0.209 µM | 0.152 µM | 9.2 | 8.3 | 5.3 | 16 | 15.5
4 | CCCN(C/C=C/I)[C@H]1CCc2ccc(O)cc2C1 [7-hydroxy-PIPAT] | 99.8% | 110% | 104% | 108% | 101% | 111% | 97.3% | 90.5% | 102% | 105% | 102% | 104% | 97.8% | 101% | 98.4% | 98% | 96.7% | 101% | 103% | 98.3% | 102% | 104% | 103% | 103% | 96% | > 10 µM | > 10 µM | > 10 µM | > 10 µM | > 10 µM | 0 | 0 | 0 | 0 | 0
